Assay results taken from ChEMBL document CHEMBL3217476, “Binding region and interaction properties of sulfoquinovosylacylglycerol (SQAG) with human vascular endothelial growth factor 165 revealed by biosensor-based assays” (Medchemcomm, 2011).
One block for each compound: values may come before it. Calls of active or inactive are those of the source. The calls are words filed in the database; no cut-off is given here.

Assays:
[1] = biological target: T1, Vascular endothelial growth factor A, long form (Homo sapiens) (UniProt P15692); assay: Binding affinity to His-tagged human recombinant full length VEGF165 (amino acid residues A1 to R165) expressed in Escherichia coli BL21 (DE3) cells at 0.125 to 2 uM by surface plasmon resonance assay
T1 sequence (whole entry): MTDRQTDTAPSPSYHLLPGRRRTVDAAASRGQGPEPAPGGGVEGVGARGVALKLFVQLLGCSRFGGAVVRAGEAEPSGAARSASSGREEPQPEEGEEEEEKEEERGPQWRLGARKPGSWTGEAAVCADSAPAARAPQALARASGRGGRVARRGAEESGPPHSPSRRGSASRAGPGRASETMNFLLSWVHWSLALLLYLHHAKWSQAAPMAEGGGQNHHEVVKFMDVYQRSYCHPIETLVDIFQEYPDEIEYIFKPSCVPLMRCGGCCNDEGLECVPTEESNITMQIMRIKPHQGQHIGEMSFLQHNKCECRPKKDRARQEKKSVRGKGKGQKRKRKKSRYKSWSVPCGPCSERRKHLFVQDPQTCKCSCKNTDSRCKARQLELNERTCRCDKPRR

[2] = biological target: T2, Vascular endothelial growth factor A, long form (Homo sapiens, UniProt P15692); assay: Binding affinity to His-tagged human recombinant full length VEGF165 (amino acid residues A1 to R165) expressed in Escherichia coli BL21 (DE3) cells by surface plasmon resonance assay
T2 sequence (P15692 whole entry): T1 sequence (whole entry)

[3] = biological target: T1, Vascular endothelial growth factor A, long form (Homo sapiens); assay: Binding affinity to His-tagged human recombinant full length VEGF165 (amino acid residues A1 to R165) expressed in Escherichia coli BL21 (DE3) cells at 1.25 to 20 uM by surface plasmon resonance assay
[4] = biological target: Vascular endothelial growth factor A, long form (Homo sapiens, UniProt P15692, EX2DEL); assay: Binding affinity to His-tagged human recombinant truncated del2 VEGF165 (amino acid residues A111 to R165) expressed in Escherichia coli BL21 (DE3) cells by surface plasmon resonance assay
[5] = biological target: Pro-epidermal growth factor (Homo sapiens) (UniProt P01133); assay: Binding affinity to human EGF (amino acid residues N1 to R53) at 0.125 to 2 uM by surface plasmon resonance assay
[6] = biological target: Fibroblast growth factor 1 (Homo sapiens) (UniProt P05230); assay: Binding affinity to human FGF1 (amino acid residues M1 to D141) at 0.125 to 2 uM by surface plasmon resonance assay
[7] = biological target: Vascular endothelial growth factor receptor 1 (Homo sapiens) (UniProt P17948); assay: Binding affinity to human VEGFR1 (amino acid residues S27 to I328) at 0.125 to 2 uM by surface plasmon resonance assay
[8] = biological target: Angiopoietin-1 (Homo sapiens) (UniProt Q15389); assay: Binding affinity to human Ang-1 (amino acid residues N21 to F496) at 0.125 to 2 uM by surface plasmon resonance assay
[9] = biological target: Transforming growth factor beta-2 proprotein (Homo sapiens) (UniProt P61812); assay: Binding affinity to human TGFbeta2 (amino acid residues A1 to S112) at 0.125 to 2 uM by surface plasmon resonance assay
[10] = biological target: T1, Vascular endothelial growth factor A, long form (Homo sapiens); assay: Binding affinity to human VEGF165 heparin binding domain (amino acid residues A111 to R165) expressed in T7 phage assessed as increase in emergence ratio of del2 T7 phage particles from host Escherichia coli BLT5615 cells by QCM sensorgram analysis; format: cell-based
[11] = biological target: Bone morphogenetic protein 2 (Homo sapiens) (UniProt P12643); assay: Binding affinity to human BMP-2 (amino acid residues M1 to R115) at 0.125 to 2 uM by surface plasmon resonance assay
[12] = biological target: T1, Vascular endothelial growth factor A, long form (Homo sapiens); assay: Binding affinity to human VEGF121 (amino acid residues A1 to R121) at 0.125 to 2 uM by surface plasmon resonance assay
[13] = biological target: Platelet-derived growth factor receptor beta (Mus musculus) (UniProt P05622); assay: Binding affinity to GST-fused mouse PDGFRB (amino acid residues L33 to E133) at 0.125 to 2 uM by surface plasmon resonance assay
[14] = biological target: Vascular endothelial growth factor receptor 2 (Homo sapiens) (UniProt P35968); assay: Binding affinity to human VEGFR2 (amino acid residues A20 to E764) at 0.125 to 2 uM by surface plasmon resonance assay
[15] = biological target: Neuropilin-1 (Homo sapiens) (UniProt O14786); assay: Binding affinity to human NRP1 (amino acid residues M1 to K644) at 0.125 to 2 uM by surface plasmon resonance assay
Homo sapiens [16] = organism: Homo sapiens; assay: Binding affinity to human FGFR2 alpha (amino acid residues R22 to E378) at 0.125 to 2 uM by surface plasmon resonance assay
[17] = tested on: Vascular endothelial growth factor A, long form (Homo sapiens), P15692 [UNDEFINED MUTATION]; assay: Binding affinity to His-tagged human recombinant truncated del3 VEGF165 (amino acid residues A111 to T142) expressed in Escherichia coli BL21 (DE3) cells at 0.125 to 2 uM by surface plasmon resonance assay
Homo sapiens [18] = organism: Homo sapiens; assay: Binding affinity to human sDLL-4 (amino acid residues S1 to P498) at 0.125 to 2 uM by surface plasmon resonance assay
[19] = biological target: Angiopoietin-1 receptor (Homo sapiens) (UniProt Q02763); assay: Binding affinity to human Tie-2 (amino acid residues A23 to K745) at 0.125 to 2 uM by surface plasmon resonance assay
[20] = biological target: Epidermal growth factor receptor (Homo sapiens) (UniProt P00533); assay: Binding affinity to human EGFR (amino acid residues L25 to S645) at 0.125 to 2 uM by surface plasmon resonance assay
[21] = biological target: Ephrin type-B receptor 4 (Homo sapiens) (UniProt P54760); assay: Binding affinity to human EphB4 (amino acid residues L16 to A539) at 0.125 to 2 uM by surface plasmon resonance assay
[22] = biological target: T1, Vascular endothelial growth factor A, long form (Homo sapiens); assay: Inhibition of human VEGF165 heparin binding domain (amino acid residues A111 to R165) expressed in T7 phage/NRP1 interaction assessed as rescued phage titer ratio of del2 T7 phage particles at 1 uM preincubated with del2 T7 phage particles by QCM sensorgram analysis
Homo sapiens [23] = organism: Homo sapiens; assay: Binding affinity to human PDGF-BB (amino acid residues S1 to T110) at 0.125 to 2 uM by surface plasmon resonance assay
[24] = biological target: TGF-beta receptor type-2 (Homo sapiens) (UniProt P37173); assay: Binding affinity to human TGFbetaR2 (amino acid residues M1 to D159) at 0.125 to 2 uM by surface plasmon resonance assay
[25] = biological target: Fibroblast growth factor 2 (Homo sapiens) (UniProt P09038); assay: Binding affinity to human FGF2 (amino acid residues A1 to S154) at 0.125 to 2 uM by surface plasmon resonance assay
[26] = biological target: Neurogenic locus notch homolog protein 1 (Homo sapiens) (UniProt P46531); assay: Binding affinity to human Notch-1 (amino acid residues A19 to Q526) at 0.125 to 2 uM by surface plasmon resonance assay
[27] = biological target: Ephrin type-B receptor 2 (Homo sapiens) (UniProt P29323); assay: Binding affinity to human EphB2 (amino acid residues V27 to K458) at 0.125 to 2 uM by surface plasmon resonance assay
[28] = biological target: T1, Vascular endothelial growth factor A, long form (Homo sapiens); assay: Binding affinity to human VEGF165 C-terminal fragment of heparin binding domain (amino acid residues C137 to R165) expressed in T7 phage assessed as increase in emergence ratio of del4 T7 phage particles from host Escherichia coli BLT5615 cells by QCM sensorgram analysis; format: cell-based
[29] = biological target: Insulin-like growth factor 1 (Homo sapiens) (UniProt P05019); assay: Binding affinity to human IGF-1 (amino acid residues G49 to A118) at 0.125 to 2 uM by surface plasmon resonance assay
[30] = biological target: DNA polymerase lambda (Homo sapiens) (UniProt Q9UGP5); assay: Binding affinity to human DNA polymerase lambda (amino acid residues M1 to R95) by surface plasmon resonance assay
[31] = biological target: Bone morphogenetic protein receptor type-2 (Homo sapiens) (UniProt Q13873); assay: Binding affinity to human BMPR2 (amino acid residues A26 to I151) at 0.125 to 2 uM by surface plasmon resonance assay
[32] = tested on: Vascular endothelial growth factor A, long form (Homo sapiens), P15692 [UNDEFINED MUTATION]; assay: Binding affinity to His-tagged human recombinant truncated del1 VEGF165 (amino acid residues A1 to R110) expressed in Escherichia coli BL21 (DE3) cells at 0.125 to 2 uM by surface plasmon resonance assay
[33] = biological target: Vascular endothelial growth factor A, long form (Homo sapiens, UniProt P15692, EX4DEL); assay: Binding affinity to His-tagged human recombinant truncated del4 VEGF165 (amino acid residues C137 to R165) expressed in Escherichia coli BL21 (DE3) cells by surface plasmon resonance assay
[34] = biological target: Protein jagged-1 (Homo sapiens) (UniProt P78504); assay: Binding affinity to human Jagged-1 (amino acid residues S32 to S1046) at 0.125 to 2 uM by surface plasmon resonance assay
[35] = biological target: Insulin-like growth factor 1 receptor (Homo sapiens) (UniProt P08069); assay: Binding affinity to human IGF-1 receptor (amino acid residues E31 to N932) at 0.125 to 2 uM by surface plasmon resonance assay
[36] = biological target: T1, Vascular endothelial growth factor A, long form (Homo sapiens); assay: Inhibition of human VEGF165 heparin binding domain (amino acid residues A111 to R165) expressed in T7 phage/NRP1 interaction assessed as rescued phage titer ratio of del2 T7 phage particles at 10 uM preincubated with del2 T7 phage particles by QCM sensorgram analysis

Activity [1]: inactive
SMILES: O=S(=O)(O)C[C@H]1O[C@@H](OCC(O)CO)[C@H](O)[C@@H](O)[C@@H]1O (stereo not given in full)

Kd [2]: 0.025 nM
SMILES: CCCCCCCCCCCCCCCCCC(=O)OCC(CO[C@H]1O[C@H](CS(=O)(=O)O)[C@@H](O)[C@H](O)[C@H]1O)OC(=O)CCCCCCCCCCCCCCCCC (stereo not given in full)

Activity [3]: inactive
SMILES: CCCCCCCCCC(=O)OCC(O)CO[C@H]1O[C@H](CS(=O)(=O)O)[C@@H](O)[C@H](O)[C@H]1O (stereo not given in full)

Kd [4]: 0.025 nM | Activity [5]: inactive | Activity [6]: inactive | Activity [7]: inactive | Activity [8]: inactive | Activity [9]: inactive | Activity [10]: Active | Activity [11]: inactive | Activity [12]: inactive | Activity [13]: inactive | Activity [14]: inactive | Activity [15]: inactive | Activity (Homo sapiens [16]): inactive | Activity [17]: inactive | Activity (Homo sapiens [18]): inactive | Activity [19]: inactive | Activity [20]: inactive | Activity [21]: inactive | inhibition [22]: Active | Activity (Homo sapiens [23]): inactive | Activity [24]: inactive | Activity [25]: inactive | Activity [26]: inactive | Activity [27]: inactive | Kd [2]: 0.046 nM | Activity [28]: Active | Activity [29]: inactive | Kd [30]: 9.9 nM | Activity [31]: inactive | Activity [32]: inactive | Kd [33]: 1400 nM | Activity [34]: inactive | Activity [35]: inactive
SMILES: CCCCCCCCCCCCCCCCCC(=O)OCC(CO[C@@H]1O[C@H](CS(=O)(=O)O)[C@@H](O)[C@H](O)[C@H]1O)OC(=O)CCCCCCCCCCCCCCCCC (stereo not given in full)

inhibition [36]: Active | Kd [2]: 18000 nM
SMILES: CCCCCCCCCCCCCCCCCC(=O)OCC(O)CO[C@H]1O[C@H](CS(=O)(=O)O)[C@@H](O)[C@H](O)[C@H]1O (stereo not given in full)

Activity [1]: inactive
SMILES: CCCCCCCCCCCCCCCCCC(=O)OCC(CO[C@@H]1O[C@H](CO)[C@@H](O)[C@H](O)[C@H]1O)OC(=O)CCCCCCCCCCCCCCCCC (stereo not given in full)

Kd [2]: 16000 nM
SMILES: CCCCCCCCCCCCCCCCCC(=O)OCC(O)CO[C@@H]1O[C@H](CS(=O)(=O)O)[C@@H](O)[C@H](O)[C@H]1O (stereo not given in full)
